{"source": "paper PMC2837273", "about": "(Drug metabolism and disposition: the biological fate of …, 2008)", "key": {"human BCRP": {"system": "human BCRP", "settings": "polarized cell lines; ref Merino et al., 2005; cited from earlier work"}, "Bcrp1": {"system": "Bcrp1", "settings": "ref Merino et al., 2005, cited from earlier work"}, "rat Abcg2 [1]": {"biological_target": "T1, rat Abcg2 (Rattus norvegicus, UniProt Q80W57)", "T1 sequence (Q80W57 1-657)": "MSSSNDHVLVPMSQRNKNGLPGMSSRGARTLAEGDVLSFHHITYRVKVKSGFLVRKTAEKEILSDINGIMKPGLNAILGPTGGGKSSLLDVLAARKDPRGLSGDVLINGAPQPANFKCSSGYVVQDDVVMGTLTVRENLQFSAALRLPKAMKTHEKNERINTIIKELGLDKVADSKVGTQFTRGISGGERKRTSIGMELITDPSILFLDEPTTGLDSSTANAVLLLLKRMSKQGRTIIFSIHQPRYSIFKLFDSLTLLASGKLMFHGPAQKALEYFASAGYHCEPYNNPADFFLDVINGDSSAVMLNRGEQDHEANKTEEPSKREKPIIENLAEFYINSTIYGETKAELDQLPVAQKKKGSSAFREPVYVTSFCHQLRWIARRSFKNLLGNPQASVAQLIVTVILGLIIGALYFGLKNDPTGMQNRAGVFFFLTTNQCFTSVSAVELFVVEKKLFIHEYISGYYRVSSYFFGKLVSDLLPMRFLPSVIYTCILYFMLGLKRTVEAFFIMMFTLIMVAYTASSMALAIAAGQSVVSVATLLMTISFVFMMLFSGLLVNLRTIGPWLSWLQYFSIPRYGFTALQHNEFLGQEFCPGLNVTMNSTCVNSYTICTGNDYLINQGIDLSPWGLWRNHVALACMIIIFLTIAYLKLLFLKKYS", "format": "cell-based"}, "murine Bcrp1": {"system": "murine Bcrp1", "settings": "polarized cell lines; ref Merino et al., 2005; cited from earlier work"}, "Abcg2 [2]": {"system": "Abcg2", "settings": "wild-type and P-gp deficient mice; ref Cisternino et al., 2004; cited from earlier work"}, "human ABCG2": {"system": "human ABCG2", "settings": "read-out: IC50 on efflux or accumulation; cell lines transfected with human ABCG2; ref Ahmed-Belkacem et al., 2005; Pan et al., 2007; cited from earlier work"}, "rat Abcg2 [3]": {"biological_target": "T1, rat Abcg2", "test": "Hoechst 33342 accumulation in MDCKII-rAbcg2 cells", "format": "cell-based", "settings": "1 μM GF120918, 10μM Hoechst 33342"}, "Abcg2 [4]": {"system": "Abcg2", "test": "GF120918 \"chemical knockout\" of nitrofurantoin transfer into rat milk", "format": "in vivo, Sprague Dawley rat", "settings": "GF120918 10 mg/kg treated group vs control; lactating rats"}, "[5]": {"settings": "MDCKII-rat Abcg2 vs MDCKII-empty cells, 10μM nitrofurantoin"}}, "note": "“Also recorded” adds a separate entry of the source. Where two headings read alike, the source gives them in different places.", "data": [{"smiles": "O=C1CN(/N=C/c2ccc([N+](=O)[O-])o2)C(=O)N1", "note": "[nitrofurantoin, Nitrofurantoin]", "values": [{"measurement": "transport by human BCRP", "setting": "human BCRP", "value": "efficiently transported"}, {"measurement": "area under the concentration time curve, Bcrp1 knockout vs wild-type mice", "setting": "Bcrp1; intravenous administration", "value": 2, "unit": "fold"}, {"measurement": "area under the concentration time curve, Bcrp1 knockout vs wild-type mice", "setting": "Bcrp1; oral administration", "value": 4, "unit": "fold"}, {"measurement": "decrease in basolateral transport", "setting": "rat Abcg2 [1]; [5]", "value": 55, "unit": "%"}, {"measurement": "increase in apical directed transport", "setting": "rat Abcg2 [1]; [5]", "value": 7.5, "unit": "fold"}, {"measurement": "transport by murine Bcrp1", "setting": "murine Bcrp1", "value": "efficiently transported"}]}, {"smiles": "O=C1c2c(O)ccc(O)c2C(=O)c2c(NCCNCCO)ccc(NCCNCCO)c21", "note": "[mitoxantrone]", "values": [{"measurement": "accumulation in the presence of GF120918", "setting": "Abcg2 [2]", "value": "significantly increased"}]}, {"smiles": "COc1cc2c(cc1OC)CN(CCc1ccc(NC(=O)c3cccc4c(=O)c5cccc(OC)c5[nH]c34)cc1)CC2", "note": "[GF120918, N-(4-[2-(1,2,3,4-tetrahydro-6,7-dimethoxy-2-isoquinolinyl)ethyl]-phenyl)-9,10-dihydro-5-methoxy-9-oxo-4-acridine carboxamide]", "values": [{"measurement": "IC50", "setting": "human ABCG2", "value": "~300", "unit": "nM"}, {"measurement": "effect on Hoechst 33342 efflux phenotype (reduced accumulation)", "setting": "rat Abcg2 [3]", "value": "reversed; also recorded: effectively inhibit"}, {"measurement": "reduction in the M/S of nitrofurantoin", "setting": "Abcg2 [4]", "value": 93, "unit": "%"}, {"measurement": "effect on nitrofurantoin transport/efflux by rat Abcg2", "setting": "rat Abcg2 [1]; 1 μM GF120918, MDCKII-rAbcg2 cells", "value": "largely reversed; also recorded: effectively inhibit"}]}]}
